Measurements from the supplement of paper PMC5579334.
± gives the standard deviation of the averaged measurements.

How the values were obtained:
HS-Sch-2 [1] = assay: drug sensitivity score (DSS, CellTiter-Glo viability, 72 h) (DSS (dimensionless)); higher = more sensitive; extreme values may be limits of the assay
Method in brief: (§1)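 MPNST cell lines and primary human Schwann cells were seeded at 750–1000 cells per well into 384-well plates preprinted with each compound at five concentrations in 10-fold steps, then incubated 72 h at 37 °C, 5% CO2. CellTiter-Glo ATP luminescence gave viability, scaled between vehicle and positive-control wells, with duplicates averaged where present. Curves were fitted with a four-parameter logistic model. Percent inhibition refers to the top concentration, while drug sensitivity score and relative IC50, censored at the top concentration, come from these fits.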

S1507-2 [2] = assay: as above
Method in brief: as §1

YST-1 [3] = assay: as above
Method in brief: as §1

[4] = test system: HSC1 (primary human Schwann cells); assay: as above
Method in brief: as §1

[5] = test system: HSC2 (primary human Schwann cells); assay: as above
Method in brief: as §1

ST8814 [6] = assay: as above
Method in brief: as §1

STS26T [7] = assay: as above
Method in brief: as §1

HS-PSS [8] = assay: as above
Method in brief: as §1

S462 [9] = assay: as above
Method in brief: as §1

HS-Sch-2 [10] = assay: % inhibition of CellTiter-Glo viability at highest tested concentration (72 h), relative to DMSO and benzethonium chloride controls; higher = more inhibition
Method in brief: as §1

S1507-2 [11] = assay: as above
Method in brief: as §1

YST-1 [12] = assay: as above
Method in brief: as §1

[13] = test system: HSC1 (primary human Schwann cells); assay: as above
Method in brief: as §1

[14] = test system: HSC2 (primary human Schwann cells); assay: as above
Method in brief: as §1

ST8814 [15] = assay: as above
Method in brief: as §1

STS26T [16] = assay: as above
Method in brief: as §1

HS-PSS [17] = assay: as above
Method in brief: as §1

S462 [18] = assay: as above
Method in brief: as §1

S1507-2 [19] = assay: drug sensitivity score (DSS, CellTox-Green cytotoxicity, 72 h) (DSS (dimensionless)); higher = more cytotoxic; extreme values may be limits of the assay
Method in brief: (§2)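 For 72 h at 37 °C, MPNST cell lines and primary human Schwann cells were exposed in 384-well plates to five 10-fold compound dilutions. CellTox-Green, added before seeding at a final 1:1000 dilution, gave fluorescence from DNA released by disrupted cells. Signals were scaled to vehicle and positive-control wells, cultures failing plate quality control were left out, and four-parameter logistic fits were applied. Relative IC50 and drug sensitivity score were derived from the fits, with IC50 censored at the top concentration.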

[20] = test system: HSC1 (primary human Schwann cells); assay: as above
Method in brief: as §2

[21] = test system: HSC2 (primary human Schwann cells); assay: as above
Method in brief: as §2

ST8814 [22] = assay: as above
Method in brief: as §2

STS26T [23] = assay: as above
Method in brief: as §2

HS-PSS [24] = assay: as above
Method in brief: as §2

Row | SMILES | drug sensitivity score (HS-Sch-2 [1]) | drug sensitivity score (S1507-2 [2]) | drug sensitivity score (YST-1 [3]) | drug sensitivity score [4] | drug sensitivity score [5] | drug sensitivity score (ST8814 [6]) | drug sensitivity score (STS26T [7]) | drug sensitivity score (HS-PSS [8]) | drug sensitivity score (S462 [9]) | % inhibition (HS-Sch-2 [10]) | % inhibition (S1507-2 [11]) | % inhibition (YST-1 [12]) | % inhibition [13] | % inhibition [14] | % inhibition (ST8814 [15]) | % inhibition (STS26T [16]) | % inhibition (HS-PSS [17]) | % inhibition (S462 [18]) | drug sensitivity score (S1507-2 [19]) | drug sensitivity score [20] | drug sensitivity score [21] | drug sensitivity score (ST8814 [22]) | drug sensitivity score (STS26T [23]) | drug sensitivity score (HS-PSS [24])
1 | Cn1c(CCCC(=O)O)nc2cc(N(CCCl)CCCl)ccc21 [Bendamustine] (max concentration tested 10000 nM) | 0 | 0 | 0.01 | 0 | 0 | 0 | 0 | 0 | 0 | 9.41% | -3.59 ± 5.5% | 10.4% | 5.73% | 8.93% | -3.13% | 0.816% | 4.27% | -6.58 ± 4% | 0 | 0 | 0 | 0 | 0 | 0
2 | CC(=O)c1c(C)c2cnc(Nc3ccc(N4CCNCC4)cn3)nc2n(C2CCCC2)c1=O [Palbociclib] (max concentration tested 10000 nM) | 5.62 | 3.73 ± 0.74 | 3.89 | 5.26 | 7.37 | 1.84 | 3.39 | 3.5 | 8.25 ± 0.96 | 68.8% | 38.8 ± 0.47% | 44.5% | 31.6% | 45.6% | 28% | 36.7% | 41.6% | 72.2 ± 6.1% | 1.02 ± 1.1 | 0 | 0 | 0 | 0 | 0
3 | CC1=C(/C=C/C(C)=C/C=C/C(C)=C/C(=O)O)C(C)(C)CCC1 [Tretinoin] (max concentration tested 10000 nM) | 0 | 2.06 ± 2.6 | 0 | 3.65 | 1.99 | 1.48 | 0.0098 | 0 | 0 | -3.32% | 22.8 ± 16% | -8.64% | 32.9% | 20.1% | 19.1% | 12.3% | -12.1% | 4.5 ± 5.9% | 0.483 ± 0.68 | 0 | 0 | 0 | 0 | 0
4 | Nc1nc(Cl)nc2c1ncn2[C@H]1C[C@H](O)[C@@H](CO)O1 [Cladribine] (max concentration tested 1000 nM) | 3.37 | 0.0035 ± 0.005 | 2.87 | 5.81 | 6.3 | 0.423 | 3.75 | 1.59 | 0.676 ± 0.56 | 67.9% | 9.03 ± 3% | 54.4% | 61.2% | 71.9% | 21.3% | 52.5% | 38.4% | 24.7 ± 8.6% | 4.43 ± 6.3 | 4.05 | 5.38 | 0.837 | 0.902 | 0.65
5 | COc1ccc(-c2cc3c(C)nc(N)nc3n([C@H]3CC[C@H](OCCO)CC3)c2=O)cn1 (max concentration tested 10000 nM) | 14.9 | 22.5 ± 0.84 | 25.6 | 18.3 | 16.7 | 18.8 | 20.5 | 11.7 | 16.6 ± 2 | 97.5% | 98.4 ± 1.9% | 101% | 92.1% | 92% | 99.7% | 92.3% | 70.2% | 86.96 ± 0.63% | 6.9 ± 1.9 | 2.35 | 2.71 | 6.06 | 4.38 | 0.29
6 | Cn1cc(C2=C(c3cn(C4CCN(Cc5ccccn5)CC4)c4ccccc34)C(=O)NC2=O)c2ccccc21 [Enzastaurin] (max concentration tested 10000 nM) | 0.28 | 3.15 ± 2.5 | 0 | 1.32 | 1.06 | 0.0668 | 1.09 | 3.43 | 0.0347 ± 0.049 | 12.3% | 26.9 ± 3.6% | -1.13% | 21.8% | 25.1% | 12.8% | 19.9% | 11.3% | 10.8 ± 2.6% | 0 | 0 | 0 | 0 | 0.0176 | 0
7 | CN(Cc1cnc2nc(N)nc(N)c2n1)c1ccc(C(=O)N[C@@H](CCC(=O)O)C(=O)O)cc1 [Methotrexate] (max concentration tested 5000 nM) | 13.7 | 1.24 ± 1.8 | 6.23 | 0 | 0.0797 | 6.3 | 25.9 | 0 | 19.9 ± 4.6 | 58.8% | -2.04 ± 33% | 24.6% | 3.1% | 13.5% | 38.2% | 62.5% | -5.89% | 70.2 ± 8.4% | 0 | 0 | 0 | 0.851 | 4.94 | 0.89
8 | C[C@@H](C(=O)O)c1ccc(-c2ccccc2)c(F)c1 [Tarenflurbil] (max concentration tested 10000 nM) | 0 | 0 | 0 | 0 | 0 | 0 | 0 | 0 | 0 | -4.22% | -1.93 ± 0.15% | -2.65% | 1.66% | -6.06% | -0.223% | -0.273% | -1.84% | -5.38 ± 11% | 0.283 ± 0.4 | 0 | 0 | 0 | 0 | 0
